Assay in all cases: Measurement of minimum inhibitory concentrations (MICs), liquid medium, OD 660 nm
The subject of one assay is E. faecium. Format: cell-based, Enterococcus faecium. As to conditions: Trypticase Soy Broth, 37° C. 24 hours. The method, then: (§1) Colonies of E. coli, E. faecium and C. kerstersii, which formed colonies on the plate medium obtained by mixing NAC medium and TSA medium at a ratio of 1:20, and colonies of P. aeruginosa were taken, added to 500 μl of the basal medium, stirred and subjected to the following experiment.
(§2) As antibacterial agents to which the sensitivity of P. aeruginosa is low and to which the sensitivities of E. coli, E. faecium and C. kerstersii are high, cefotaxime sodium salt (Sigma (referred to as “Cefotaxime” below)), ceftizoxime sodium (Fujisawa Healthcare (referred to as “Ceftizoxime” below)), vancomycin hydrochloride (Sigma (referred to as “Vancomycin” below)), minocyclin hydrochloride (Sigma (referred to as “Minocyclin” below)) and cefalotin sodium salt (Sigma (referred to as “Cefalotin” below)) were selected. The antibacterial agents were dissolved in sterilized distilled water at 51.2 mg/ml and then sterilized by filtration through a membrane filter of 0.45 μm (DISMIC-25cs: Toyo Roshi).
(§3) After adding 5 μl of the bacterial solutions to the wells and thoroughly stirring, the bacteria were cultured at 37° C. for 24 hours. After culturing, the OD values (660 nm) were measured, and the lowest concentrations of the antibacterial agents at which the growth was inhibited as compared to that of the negative control (MICs: minimum inhibitory concentrations) were determined. […]

The next assay deals with C. kerstersii. Format: cell-based, Comamonas kerstersii. The conditions noted are these: for MIC: Comamonas kerstersii, read-out: MIC (μg/ml) C. kerstersii. As to the method:
as §1, §2
(§4) After adding 5 μl of the bacterial solutions to the wells and thoroughly stirring, the bacteria were cultured at 37° C. for 24 hours. After culturing, the OD values (660 nm) were measured, and the lowest concentrations of the antibacterial agents at which the growth was inhibited as compared to that of the negative control (MICs: minimum inhibitory concentrations) were determined. As the negative control, the liquid medium to which the antibacterial agents were not added was used.

The test system of another assay is P. aeruginosa. Type of assay: cell-based, Pseudomonas aeruginosa. The conditions noted are these: for MIC: Pseudomonas aeruginosa, read-out: MIC (μg/ml) P. aeruginosa. The method, then: as §1
The antibacterial agents were dissolved in sterilized distilled water at 51.2 mg/ml and then sterilized by filtration through a membrane filter of 0.45 μm (DISMIC-25cs: Toyo Roshi).
as §4

The subject of a further assay is E. coli. Type of assay: cell-based. As to conditions: Escherichia coli; Trypticase Soy Broth, 37° C. 24 hours; read-out: MIC (μg/ml) E. coli. As to the method: as §1, §2, §3
The mark [1] stands for this setting: Trypticase Soy Broth, 37° C. 24 hours.

The values below come from patent publication US20220136032A1, “SELECTION MEDIUM FOR BACTERIA BELONGING TO GENUS PSEUDOMONAS AND USE THEREOF” (KABUSHIKI KAISHA YAKULT HONSHA, priority 2019, published 2022).

Where a name gives a salt, the structure may show the parent alone. Read-outs that look alike come from different tables or passages of the source.

On to `CC(=O)OCC1=C(C(=O)O)N2C(=O)[C@@H](NC(=O)Cc3cccs3)[C@H]2SC1` [Cefalotin, cefalotin sodium salt], for which the MIC with E. faecium (Enterococcus faecium, read-out: MIC (μg/ml) E. faecium) was 8 µg/mL; in the assay on C. kerstersii (setting [1]), 16 µg/mL; in the assay with P. aeruginosa (setting [1]), greater than 256 µg/mL. In addition, the “Sensitivity of P. aeruginosa to the antibacterial agent” value in the assay on P. aeruginosa is recorded as “low”.
Regarding `CO/N=C(\C(=O)N[C@@H]1C(=O)N2C(C(=O)O)=C(COC(C)=O)CS[C@H]12)c1csc(N)n1` [Cefotaxime, cefotaxime sodium salt], the MIC in the assay on E. coli was less than 0.5 µg/mL; with P. aeruginosa (setting [1]), 16 µg/mL.
With `CO/N=C(\C(=O)N[C@@H]1C(=O)N2C(C(=O)O)=CCS[C@H]12)c1csc(N)n1` [Ceftizoxime, ceftizoxime sodium], the MIC is less than 0.5 µg/mL with E. coli and 64 µg/mL in the assay on P. aeruginosa (setting [1]).
In the case of `CN(C)c1ccc(O)c2c1C[C@@H]1C[C@@H]3[C@H](N(C)C)C(=O)C(C(N)=O)=C(O)[C@@]3(O)C(=O)C1=C2O.Cl` [Minocyclin, minocyclin hydrochloride], in the assay with E. faecium, the “MIC (μg/ml) E. faecium” value was less than 0.5 µg/mL. Besides, the “MIC (μg/ml) C. kerstersii” value in the assay with C. kerstersii (setting [1]) is less than 0.5 µg/mL. In addition, in the assay with P. aeruginosa, the “Sensitivity of P. aeruginosa to the antibacterial agent” value is given as “sensitive”. Moreover, the “MIC (μg/ml) P. aeruginosa” value against P. aeruginosa (setting [1]) is less than 0.5 µg/mL.
For `CN[C@H](CC(C)C)C(=O)N[C@H]1C(=O)N[C@@H](CC(N)=O)C(=O)N[C@H]2C(=O)N[C@H]3C(=O)N[C@H](C(=O)N[C@H](C(=O)O)c4cc(O)cc(O)c4-c4cc3ccc4O)[C@H](O)c3ccc(c(Cl)c3)Oc3cc2cc(c3O[C@@H]2O[C@H](CO)[C@@H](O)[C@H](O)[C@H]2O[C@H]2C[C@](C)(N)[C@H](O)[C@H](C)O2)Oc2ccc(cc2Cl)[C@H]1O` [Vancomycin, vancomycin hydrochloride], in the assay on C. kerstersii, the “Sensitivity of C. kerstersii to the antibacterial agent” value is recorded as “low”. Also, the MIC is 128 µg/mL with C. kerstersii (24 h) and greater than 256 µg/mL in the assay with P. aeruginosa (24 h).
